Assay results from US4127720A, “Pyrimido[2,1-a]isoquinoline derivatives having antiallergy activity” (priority 1977, dated 1978).
Read-outs that look alike come from different tables or passages of the source.

Test system: reagin-mediated rat Passive Cutaneous Anaphylaxis (PCA)
Assay: Reagin-mediated rat Passive Cutaneous Anaphylaxis (PCA) screening test
Format: in vivo, Sprague-Dawley rats
Experimental: The reagin-mediated rat Passive Cutaneous Anaphylaxis (PCA) screening test used to evaluate the present compounds is generally regarded as one of the best animal models for use in predicting the antiallergy activity of test compounds in man. Briefly, the method consists of passive sensitization of skin sites on the test animals with reaginic antibodies followed after 24 hours by administration of the test drug and antigen challenge. The allergic response is measured by use of Evans' blue dye and is evaluated by the spot diameter at the injection side. Details of the test are provided below.
A substituted ovalbumin antigen is used both as immunogen and challenging antigen. The antigen is prepared as follows: 500 mg. ovalbumin (EA) and 500 mg. K2 CO3 are dissolved in 25 ml. distilled H2 O and stirred at room temperature for 5 minutes. Five hundred (500) mg. dinitrobenzene sulfonic acid, Na^+ salt, (previously recrystallized from hot absolute ethanol) is then added slowly with continued stirring. The reaction mixture is then immediately placed in the dark and allowed to proceed for 2 hours with constant stirring. After 2 hours the mixture is placed in suitable dialysis tubing and dialyzed against 5 changes (4 liters each) of distilled H2 O at 5° C. After dialysis the product is lyophilized and stored at room temperature in a brown or amber container. The antigen obtained will appear as a light yellow, amorphous solid which is very soluble in water or saline. It is designated as DNP denatured ovalbumin (DNP-d EA).
Adult, male Sprague-Dawley rats are used as a source or reagin-rich antisera for the PCA model. Immunization is by a combination of DNP-d EA on Al(OH)3 gel and B. pertussis vaccine. Preparation of the DNP-d EA - gel immunogen is as follows: Dissolve the DNP-d EA in TBS so as to give a concentration of 10 mg./ml. Slowly add 1 ml. of this solution to 10 ml. Al(OH)3 gel (10 mg. solids/ml.) with constant stirring at room temperature. Stir the mixture an additional 30 minutes to insure a uniform adsorption of antigen on gel.
The resulting preparation is then used in combination with phase I B. pertussis vaccine to immunize male S/D rats as follows: For each rat administer 0.1 ml. DNP-d EA - gel suspension intramuscularly in each hind leg (200 μg DNP-d EA and 2 mg. gel total dose). Follow these injections by the intraperitoneal administration of 1.0 ml. B. pertussis vaccine (10-20 × 10^9 organisms). The use of light ether anesthesia during this procedure is recommended to insure proper intramuscular and intraperitoneal injections. Nine days following immunization (but no longer than 10) the animals are exsanguinated by cardiac puncture or abdominal aorta cannulation under ether or pentobarbital anesthesia. The collected whole blood is allowed to clot, the serum separated by centrifugation and the individual serum samples stored frozen until assayed for IgE content.
Individual serum samples should be screened for reaginic antibody concentration before being pooled with other sera, as not all rats respond to immunization procedures with reagin production. A 1:50 saline dilution of serum from each immunized rat is used for this purpose. Intradermal injections of 0.05 ml. of the diluted sera are made in the shaven backs of two small female recipient rats, 100-120 gms. Several serum samples can be tested simultaneously in recipient animals. After a 24 to 48 hour latent period antigen challenge is accomplished by intravenous administration to each rat of 1 mg. DNP-d EA in 0.5 ml. 0.5% Evans' blue dye in saline. Sera which show positive PCA reactions at the 1:50 dilution, as measured 20 to 30 minutes post-challenge are pooled, dispensed in small aliquots and stored at -70° C. or lower until used. Negative sera may be discarded.
The IgE titer of the antisera pool should then be determined. […]

[1] = po, 10 minutes prior to antigen challenge, Table 1, read-out: Rat PCA Test ID50, p.o. (dose of compound that inhibits 50% of the response)
[2] = iv, 1-5 minutes prior to antigen challenge (DSCG: at the time of antigen challenge), read-out: Rat PCA Test ID50, i.v. (dose of compound that inhibits 50% of the response)
[3] = po, 10 minutes prior to antigen challenge, Table II and its footnote, read-out: Rat PCA Test ID50, p.o. (dose of compound that inhibits 50% of the response)

Compound	ED50 [1]	other results
CCOC(=O)c1cnc2n(c1=O)CC(CC)c1ccccc1-2 (racemic) [Example 10B, ethyl (±)-7-Ethyl-6,7-dihydro-4-oxo-4H-pyrimido[2,1-a]isoquinoline-3-carboxylate]	0.13 mg/kg	–
C=CCC1Cn2c(ncc(C(=O)OCC)c2=O)-c2cc(OC)ccc21 (racemic) [Example 10D, ethyl (±)-7-Allyl-6,7-dihydro-10-methoxy-4-oxo-4H-pyrimido[2,1-a]-3-carboxylate]	~0.31 mg/kg	–
CCC1Cn2c(ncc(C(=O)O)c2=O)-c2ccccc21 (racemic) [Example 11C, (±)-7-ethyl-6,7-dihydro-4-oxo-4H-pyrimido[2,1-a]isoquinoline-3-carboxylic Acid]	0.048 mg/kg	–
C=CCC1Cn2c(ncc(C(=O)O)c2=O)-c2cc(OC)ccc21 (racemic) [Example 11E, (±)-7-allyl-6,7-dihydro-10-methoxy-4-oxo-4H-pyrimido[2,1-a]isoquinoline-3-carboxylic Acid]	~0.077 mg/kg	–
CCOC(=O)c1cnc2n(c1=O)CC(CC(OC)OC)c1ccc(OC)cc1-2 (racemic) [Example 22 (CH2 CH(OMe)2), Ethyl (±)-6,7-Dihydro-7-(2,2-dimethoxyethyl)-10-methoxy-4-oxo-4H-pyrimido[2,1-a]isoquinoline-3-carboxylate]	~3.3 mg/kg	–
CCOC(=O)c1cnc2n(c1=O)CC(CC=O)c1ccc(OC)cc1-2 (racemic) [Example 22 (CH2 CHO), Ethyl (±)-7-Formylmethyl-6,7-dihydro-10-methoxy-4-oxo-4H-pyrimido[2,1-a]isoquinoline-3-carboxylate]	~20 mg/kg	–
CCC1Cn2c(ncc(-c3nnn[nH]3)c2=O)-c2ccccc21 (racemic) [Example 23, (±)-7-Ethyl-6,7-dihydro-3-(1H-tetrazol-5-yl)-4H-pyrimido[2,1-a]isoquinol-4-one]	0.1 mg/kg	–
O=C(O)c1cnc2c3ccccc3ccn2c1=O [2,3, 4-Oxo-4H-pyrimido[2,1-a]isoquinoline-3-carboxylic Acid]	–	ED50 [2]: 0.33 mg/kg
CCOC(=O)c1cnc2c3ccccc3ccn2c1=O [Example 1, Ethyl 4-Oxo-4H-pyrimido[2,1-a]isoquinoline-3-carboxylate]	–	ED50 [3]: > 5 mg/kg
CCOC(=O)c1cnc2c3ccccc3ccn2c1=N [Example 3A, Ethyl 4-Imino-4H-pyrimido[2,1-a]isoquinoline-3-carboxylate]	–	ED50 [3]: ~0.19 mg/kg
O=C(O)c1cnc2c3ccccc3c(O)cn2c1=O [Example 5, 7-Hydroxy-4-oxo-4H-pyrimido[2,1-a]isoquinoline-3-carboxylic Acid]	–	ED50 [2]: ~1.7 mg/kg
CCOC(=O)c1cnc2n(c1=O)CCc1ccccc1-2 [Example 6, Ethyl 6,7-Dihydro-4-oxo-4H-pyrimido[2,1-a]isoquinoline-3-carboxylate]	2.3 mg/kg	–
O=C(O)c1cnc2n(c1=O)CCc1ccccc1-2 [Example 7, 6,7-Dihydro-4-oxo-4H-pyrimido[2,1-a]isoquinoline-3-carboxylic Acid]	7.9 mg/kg	–
O=c1c(-c2nnn[nH]2)cnc2c3ccccc3ccn12 [Example 8, 3-(1H-Tetrazol-5-yl)-4H-pyrimido[2,1-a]isoquinol-4-one]	–	ED50 [2]: 0.04 mg/kg
CCOC(=O)c1cnc2n(c1=O)CCc1cc(OC)ccc1-2 [Example 9, Ethyl 6,7-Dihydro-9-methoxy-4-oxo-4H-pyrimido[2,1-a]isoquinoline-3-carboxylate]	~13 mg/kg	–
CCOC(=O)c1cnc2n(c1=O)CCc1ccc(OC)cc1-2 [Example 10A, ethyl 6,7-Dihydro-10-methoxy-4-oxo-4H-pyrimido[2,1-a]isoquinoline-3-carboxylate]	~0.81 mg/kg	–
CCOC(=O)c1cnc2n(c1=O)CCc1cc(OC)c(OC)cc1-2 [Example 10C, ethyl 6,7-Dihydro-9,10-dimethoxy-4-oxo-4H-pyrimido[2,1-a]isoquinoline-3-carboxylate]	~0.37 mg/kg	–

Compound	ED50 [1]	other results
COc1ccc2c(c1)CCn1c-2ncc(C(=O)O)c1=O [Example 11A, 6,7-dihydro-9-methoxy-4-oxo-4H-pyrimido[2,1-a]isoquinoline-3-carboxylic Acid]	2.6 mg/kg	–
COc1ccc2c(c1)-c1ncc(C(=O)O)c(=O)n1CC2 [Example 11B, 6,7-dihydro-10-methoxy-4-oxo-4H-pyrimido[2,1-a]isoquinoline-3-carboxylicAcid]	~0.48 mg/kg	–
COc1cc2c(cc1OC)-c1ncc(C(=O)O)c(=O)n1CC2 [Example 11D, 6,7-dihydro-9,10-dimethoxy-4-oxo-4H-pyrimido[2,1-a]isoquinoline-3-carboxylic Acid]	~0.31 mg/kg	–
CCOC(=O)c1cnc2c3ccc(OC)cc3ccn2c1=O [Example 12, Ethyl 9-Methoxy-4-oxo-4H-pyrimido[2,1-a]isoquinoline-3-carboxylate]	–	ED50 [3]: ~31 mg/kg
CCOC(=O)c1cnc2c3cc(OC)ccc3ccn2c1=O [Example 13A, ethyl 10-Methoxy-4-oxo-4H-pyrimido[2,1-a]isoquinoline-3-carboxylate]	–	ED50 [3]: ~0.9 mg/kg
CCOC(=O)c1cnc2c3ccccc3c(CC)cn2c1=O [Example 13B, ethyl 7-Ethyl-4-oxo-4H-pyrimido[2,1-a]isoquinoline-3-carboxylate]	–	ED50 [3]: ~5 mg/kg
CCOC(=O)c1cnc2c3cc(OC)c(OC)cc3ccn2c1=O [Example 13C, ethyl 9,10-Dimethoxy-4-oxo-4H-pyrimido[2,1-a]isoquinoline-3-carboxylate]	–	ED50 [3]: ~2.63 mg/kg
C=CCc1cn2c(=O)c(C(=O)OCC)cnc2c2cc(OC)ccc12 [Example 14, Ethyl 7-Allyl-10-methoxy-4-oxo-4H-pyrimido[2,1-a]isoquinoline-3-carboxylate]	–	ED50 [3]: > 5 mg/kg
CCCc1cn2c(=O)c(C(=O)OCC)cnc2c2cc(OC)ccc12 [Example 15, Ethyl 10-Methoxy-4-oxo-7-propyl-4H-pyrimido[2,1-a]isoquinoline-3-carboxylate]	–	ED50 [3]: ~16 mg/kg
COc1ccc2ccn3c(=O)c(C(=O)O)cnc3c2c1 [Example 16, 10-Methoxy-4-oxo-4H-pyrimido[2,1-a]isoquinoline-3-carboxylic acid]	–	ED50 [2]: ~1 mg/kg
CCc1cn2c(=O)c(C(=O)O)cnc2c2ccccc12 [Example 17A, 7-ethyl-4-oxo-4H-pyrimido[2,1-a]isoquinoline-3-carboxylic Acid]	–	ED50 [2]: ~0.048 mg/kg
COc1cc2ccn3c(=O)c(C(=O)O)cnc3c2cc1OC [Example 17B, 9,10-dimethoxy-4-oxo-4H-pyrimido[2,1-a]isoquinoline-3-carboxylic Acid]	–	ED50 [3]: ~0.01 mg/kg
C=CCc1cn2c(=O)c(C(=O)O)cnc2c2cc(OC)ccc12 [Example 17C, 7-allyl-10-methoxy-4-oxo-4H-pyrimido[2,1-a]isoquinoline-3-carboxylic Acid]	–	ED50 [2]: ~0.53 mg/kg
CCCc1cn2c(=O)c(C(=O)O)cnc2c2cc(OC)ccc12 [Example 17D, 10-methoxy-4-oxo-7-propyl-4H-pyrimido[2,1-a]isoquinoline-3-carboxylic Acid]	–	ED50 [2]: ~0.071 mg/kg
COc1ccc2c(ccn3c(=O)c(C(=O)O)cnc23)c1 [Example 18, 9-Methoxy-4-oxo-4H-pyrimido[2,1-a]isoquinoline-3-carboxylic Acid]	–	ED50 [2]: ~1.5 mg/kg
O=C(O)c1cnc2n(c1=O)CCc1ccc(O)cc1-2 [Example 19, 6,7-Dihydro-10-hydroxy-4-oxo-4H-pyrimido[2,1-a]isoquinoline-3-carboxylic Acid]	~1.2 mg/kg	–
O=C(O)c1cnc2n(c1=O)CCc1cc(O)c(O)cc1-2 [Example 20, 6,7-Dihydro-9,10-dihydroxy-4-oxo-4H-pyrimido[2,1-a]isoquinoline-3-carboxylic Acid]	~0.077 mg/kg	–
